Experimental data: patent US11046699B2, “Pyrazolo-pyrimidin-amino-cycloalkyl compounds and their therapeutic uses” (RAPT THERAPEUTICS, INC., priority 2018, dated 2021)
Counter-ions that a name gives are not always drawn.

What follows are molecules tested against GCN2 (Homo sapiens, UniProt Q9P2K8) (assay: GCN2 enzymatic endpoint assay: phosphorylation of GFP-eIF2α measured by TR-FRET (Lanthascreen)). Conditions: GCN2 biochemical IC50; 4 nM GCN2, 2 μM ATP, 80 nM GFP-eIF2α, 90 min RT; read-out: GCN2 activity.
GCN2, sequence (Q9P2K8 whole entry): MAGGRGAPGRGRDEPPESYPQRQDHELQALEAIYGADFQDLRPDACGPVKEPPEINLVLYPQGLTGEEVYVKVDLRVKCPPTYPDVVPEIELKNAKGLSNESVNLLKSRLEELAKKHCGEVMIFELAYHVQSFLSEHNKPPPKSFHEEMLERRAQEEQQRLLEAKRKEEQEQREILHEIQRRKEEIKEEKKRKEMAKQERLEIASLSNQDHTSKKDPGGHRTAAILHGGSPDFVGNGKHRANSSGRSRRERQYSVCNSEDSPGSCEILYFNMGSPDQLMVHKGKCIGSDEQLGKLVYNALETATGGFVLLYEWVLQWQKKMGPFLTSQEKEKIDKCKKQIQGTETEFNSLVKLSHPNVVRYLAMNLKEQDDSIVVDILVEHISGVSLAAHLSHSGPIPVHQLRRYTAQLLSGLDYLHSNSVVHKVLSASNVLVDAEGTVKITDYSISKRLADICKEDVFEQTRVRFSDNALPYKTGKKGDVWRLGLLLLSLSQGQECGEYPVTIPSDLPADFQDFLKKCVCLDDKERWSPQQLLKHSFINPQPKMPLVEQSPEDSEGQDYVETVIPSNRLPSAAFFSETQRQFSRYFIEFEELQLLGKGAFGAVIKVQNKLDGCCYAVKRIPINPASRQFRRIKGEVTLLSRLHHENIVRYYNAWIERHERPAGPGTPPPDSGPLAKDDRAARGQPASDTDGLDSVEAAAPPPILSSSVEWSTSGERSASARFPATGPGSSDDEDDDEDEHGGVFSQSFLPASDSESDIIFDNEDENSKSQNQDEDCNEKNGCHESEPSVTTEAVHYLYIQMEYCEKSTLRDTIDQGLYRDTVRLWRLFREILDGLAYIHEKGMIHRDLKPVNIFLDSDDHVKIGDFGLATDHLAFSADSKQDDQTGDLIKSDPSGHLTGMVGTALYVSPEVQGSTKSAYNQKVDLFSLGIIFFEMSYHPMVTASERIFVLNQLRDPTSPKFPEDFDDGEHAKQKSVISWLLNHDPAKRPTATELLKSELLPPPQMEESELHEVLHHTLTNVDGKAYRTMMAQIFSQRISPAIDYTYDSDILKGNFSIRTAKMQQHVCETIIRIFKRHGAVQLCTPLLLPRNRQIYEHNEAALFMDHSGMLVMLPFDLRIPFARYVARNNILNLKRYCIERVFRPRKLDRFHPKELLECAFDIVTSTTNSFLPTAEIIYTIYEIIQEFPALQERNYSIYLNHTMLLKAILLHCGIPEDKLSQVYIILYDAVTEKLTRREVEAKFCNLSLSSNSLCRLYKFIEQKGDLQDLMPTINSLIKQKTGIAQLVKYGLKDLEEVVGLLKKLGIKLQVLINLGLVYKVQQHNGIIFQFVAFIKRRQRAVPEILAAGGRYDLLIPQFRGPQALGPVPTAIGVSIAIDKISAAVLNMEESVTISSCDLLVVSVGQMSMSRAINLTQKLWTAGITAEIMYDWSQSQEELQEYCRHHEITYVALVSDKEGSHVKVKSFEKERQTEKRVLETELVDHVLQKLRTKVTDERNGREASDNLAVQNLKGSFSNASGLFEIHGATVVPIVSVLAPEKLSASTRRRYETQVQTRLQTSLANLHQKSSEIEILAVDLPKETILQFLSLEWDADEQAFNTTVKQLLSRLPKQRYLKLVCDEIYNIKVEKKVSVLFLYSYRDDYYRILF
Format: biochemical
Method in brief: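 2 μM ATP, 80 nM GFP-eIF2α, RT, 90 min; EDTA stop. Tb-anti-phospho antibody TR-FRET read, 520/495 nm ratio.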

Row | Compound | IC50 [nM]
1 | COCCNC(=O)[C@H]1C[C@H](Nc2ncc3c(Br)nn(-c4ccc5ncccc5c4)c3n2)C1 [Example 2, (1r,3r)-3-((3-bromo-1-(quinolin-6-yl)-1H-pyrazolo[3,4-d]pyrimidin-6-yl)amino)-N-(2-methoxyethyl)cyclobutane-1-carboxamide] | 25 to 200
2 | CNC(=O)[C@]1(C(C)C)CC[C@@H](Nc2ncc3c(Br)nn(-c4cc(F)c5ncccc5c4)c3n2)C1 [Example 37, (1R,3R)-3-((3-bromo-1-(8-fluoroquinolin-6-yl)-1H-pyrazolo[3,4-d]pyrimidin-6-yl)amino)-1-isopropyl-N-methylcyclopentane-1-carboxamide hydrochloride] | < 25
3 | CNC(=O)[C@]1(C)CC[C@@H](Nc2ncc3c(Br)nn(-c4ccc5ncc(C(C)(C)O)cc5c4)c3n2)C1 [Example 21, (1R,3R)-3-((3-bromo-1-(3-(2-hydroxypropan-2-yl)quinolin-6-yl)-1H-pyrazolo[3,4-d]pyrimidin-6-yl)amino)-N,1-dimethylcyclopentane-1-carboxamide] | 25 to 200
4 | COCCO[C@H]1C[C@H](Nc2ncc3c(Br)nn(-c4ccc5ncccc5c4)c3n2)C1 [Example 4, 3-bromo-N-((1r,3r)-3-(2-methoxyethoxy)cyclobutyl)-1-(quinolin-6-yl)-1H-pyrazolo[3,4-d]pyrimidin-6-amine] | 25 to 200
5 | CNC(=O)[C@]1(C)CC[C@@H](Nc2ncc3c(Br)nn(-c4cc(C#N)c5c(c4)CCO5)c3n2)C1 [Example 50, (1R,3R)-3-((3-bromo-1-(7-cyano-2,3-dihydrobenzofuran-5-yl)-lH-pyrazolo[3,4-d]pyrimidin-6-yl)amino)-N,1-dimethylcyclopentane-1-carboxamide; 2,2,2-trifluoroacetic acid] | 25 to 200

Same assay, conditions: tested as described in Example 77; compound and/or hydrochloride, dihydrochloride or trifluoroacetic acid salt; read-out: IC 50 Activity

Row | Compound | IC50 [nM]
6 | O=C([C@@H]1CC[C@@H](Nc2ncc3c(Br)nn(-c4ccc5ncccc5c4)c3n2)C1)N1C[C@H]2C[C@@H]1CO2 [((1R,4R)-2-oxa-5-azabicyclo[2.2.1]heptan-5-yl) ((1R,3R)-3-((3-bromo-1-(quinolin-6-yl)-1H-pyrazolo[3,4-d]pyrimidin-6-yl)amino)cyclo-pentyl)methanone] | 25 to 200
7 | CNC(=O)[C@]1(C)CC[C@@H](Nc2ncc3c(Br)nn(-c4ccc5nc(N6CCOCC6)ncc5c4)c3n2)C1 [(1R,3R)-3-[[3-bromo-1-(2-morpholino-quinazolin-6-yl)pyrazolo[3,4-d]pyrimidin-6-yl]amino]-N,1-dimethyl-cyclopentane-carboxamide; 2,2,2-trifluoroacetic acid] | 25 to 200
8 | CNC(=O)[C@]1(C)CC[C@@H](Nc2ncc3c(Br)nn(-c4ccc5ncc(CCO)cc5c4)c3n2)C1 [(1R,3R)-3-[[3-bromo-1-[3-(2-hydroxyethyl)-6-quinolyl]pyrazolo[3,4-d]pyrimidin-6-yl]amino]-N,1-dimethyl-cyclopentane-carboxamide] | < 25
9 | O=C(N[C@H]1CC[C@@](O)(C(F)(F)F)CC1)[C@@H]1CC[C@@H](Nc2ncc3c(Br)nn(-c4ccc5ncccc5c4)c3n2)C1 | 25 to 200
10 | CNC(=O)[C@]1(C)CC[C@@H](Nc2ncc3c(Br)nn(-c4cc(C#N)c5nc(C)ccc5c4)c3n2)C1 [(1R,3R)-3-[[3-bromo-1-(8-cyano-2-methyl-6-quinolyl)pyrazolo[3,4-d]pyrimidin-6-yl]amino]-N,1-dimethyl-cyclopentane-carboxamide] | < 25
11 | CNC(=O)[C@]1(C)CC[C@@H](Nc2ncc3c(Br)nn(-c4cc(Cl)cc(CS(C)(=O)=O)c4)c3n2)C1 [(1R,3R)-3-[[3-bromo-1-[3-chloro-5-(methylsulfonylmethyl)phenyl]pyrazolo [3,4-d]pyrimidin-6-yl]amino]-N,1-dimethyl-cyclopentanecarboxamide] | 25 to 200
12 | O=C(NCc1ncco1)[C@@H]1CC[C@@H](Nc2ncc3c(Br)nn(-c4ccc5ncccc5c4)c3n2)C1 [(1R,3R)-3-((3-bromo-1-(quinolin-6-yl)-1H-pyrazolo[3,4-d]pyrimidin-6-yl)amino)-N-(oxazol-2-ylmethyl)cyclopentane-1-carboxamide] | 25 to 200
13 | N#Cc1cc(-n2nc(Br)c3cnc(N[C@@H]4CC[C@@H](C(=O)N5CC(N6CCC(F)(F)C6)C5)C4)nc32)cc2cccnc12 [6-(3-bromo-6-(((1R,3R)-3-(3-(3,3-difluoro-pyrrolidin-1-yl)azetidine-1-carbonyl)cyclo-pentyl)amino)-1H-pyrazolo[3,4-d]pyrimidin-1-yl)quinoline-8-carbonitrile] | 25 to 200
14 | Cc1nnc(-c2ccc(-n3nc(Br)c4cnc(N[C@@H]5CCOC5)nc43)cc2)s1 [3-bromo-1-[4-(5-methyl-1,3,4-thiadiazol-2-yl)phenyl]-N-[(3R)-tetrahydrofuran-3-yl] pyrazolo[3,4-d]pyrimidin-6-amine] | 25 to 200
15 | CC(C)N(CC(N)=O)C(=O)[C@@H]1CC[C@@H](Nc2ncc3c(Br)nn(-c4cc(F)c5ncccc5c4)c3n2)C1 [(1R,3R)-N-(2-amino-2-oxoethyl)-3-((3-bromo-1-(8-fluoroquinolin-6-yl)-1H-pyrazolo[3,4-d]pyrimidin-6-yl)amino)-N-isopropylcyclopentane-1-carboxamide] | 25 to 200
16 | CNC(=O)[C@]1(C)CC[C@@H](Nc2ncc3c(Br)nn(-c4cc(Cl)cc(CN=S(C)(=O)O)c4)c3n2)C1 | 25 to 200
17 | Cc1nnc(-c2ccc(-n3nc(Br)c4cnc(NC5CC(O)C5)nc43)cc2)s1 (stereo not shown) [3-[[3-bromo-1-[4-(5-methyl-1,3,4-thiadiazol-2-yl)phenyl]pyrazolo[3,4-d]pyrimidin-6-yl]amino]cyclobutanol] | 25 to 200
18 | CCCCNC(=O)[C@@H]1CC[C@@H](Nc2ncc3c(Br)nn(-c4cc(C#N)c5ncccc5c4)c3n2)C1 [(1R,3R)-3-((3-bromo-1-(8-cyanoquinolin-6-yl)-1H-pyrazolo[3,4-d]pyrimidin-6-yl)amino)-N-butylcyclopentane-1-carboxamide] | 200 to 500
19 | CNC(=O)c1cc(Cl)cc(-n2nc(Br)c3cnc(N[C@@H]4CC[C@@](C)(C(=O)NC)C4)nc32)c1 [3-[3-bromo-6-[[(1R,3R)-3-methyl-3-(methylcarbamoyl)cyclopentyl]amino]pyrazolo[3,4-d]pyrimidin-1-yl]-5-chloro-N-methyl-benzamide] | 25 to 200
20 | CNC(=O)[C@]1(C)CCC(Nc2ncc3c(Br)nn(-c4ccc5c(=O)[nH]ccc5c4)c3n2)C1 (stereo partly drawn) [(1R)-3-[[3-bromo-1-(1-oxo-2H-isoquinolin-6-yl)pyrazolo[3,4-d]pyrimidin-6-yl]amino]-N,1-dimethyl-cyclopentanecarboxamide] | 25 to 200
21 | CNC(=O)[C@]1(C)CC[C@@H](Nc2ncc3c(Br)nn(-c4cc(Cl)cc(C(=O)NC5CNC5)c4)c3n2)C1 [N-(azetidin-3-yl)-3-[3-bromo-6-[[(1R,3R)-3-methyl-3-(methylcarbamoyl)cyclopentyl]amino]pyrazolo[3,4-d]pyrimidin-1-yl]-5-chloro-benzamide] | 25 to 200
22 | CC1(C(=O)N2CCNCC2)CC[C@@H](Nc2ncc3c(Br)nn(-c4cc(F)c5ncccc5c4)c3n2)C1 (stereo partly drawn) [[(3R)-3-[[3-bromo-1-(8-fluoro-6-quinolyl)pyrazolo[3,4-d]pyrimidin-6-yl]amino]-1-methyl-cyclopentyl]-piperazin-1-yl-methanone] | < 25
23 | CN1CCN(C(=O)[C@@H]2CC[C@@H](Nc3ncc4c(Br)nn(-c5cc(F)c6ncccc6c5)c4n3)C2)CC1=O [4-((1R,3R)-3-((3-bromo-1-(8-fluoroquinolin-6-yl)-1H-pyrazolo[3,4-d]pyrimidin-6-yl)amino)cyclopentane-1-carbonyl)-1-methyl-piperazin-2-one] | 25 to 200
24 | CNC(=O)CC1CC(Nc2ncc3c(Br)nn(-c4ccc(-c5nnc(C)s5)cc4)c3n2)C1 (stereo not shown) | 25 to 200
25 | C[C@@]1(C(=O)N2CNC(=O)C2)CC[C@@H](Nc2ncc3c(Br)nn(-c4cc(F)c5ncccc5c4)c3n2)C1 [1-[(1R,3R)-3-[[3-bromo-1-(8-fluoro-6-quinolyl)pyrazolo[3,4-d]pyrimidin-6-yl]amino]-1-methyl-cyclopentanecarbonyl] imidazolidin-4-one] | < 25
26 | CNC(=O)[C@]1(C)CC[C@@H](Nc2ncc3c(Br)nn(-c4ccc(-c5nnc(C)s5)c(CCN5CCOCC5)c4)c3n2)C1 [(1R,3R)-3-[[3-bromo-1-[4-(5-methyl-1,3,4-thiadiazol-2-yl)-3-(2-morpholino-ethyl)phenyl]pyrazolo[3,4-d]pyrimidin-6-yl]amino]-N,1-dimethyl-cyclo-pentanecarboxamide] | 25 to 200
27 | C[C@H]1CN(C(=O)[C@@H]2CC[C@@H](Nc3ncc4c(Br)nn(-c5ccc6ncccc6c5)c4n3)C2)CCO1 [((1R,3R)-3-((3-bromo-1-(quinolin-6-yl)-1H-pyrazolo[3,4-d]pyrimidin-6-yl)amino)cyclo-pentyl)((S)-2-methylmorpholino)methanone] | 25 to 200
28 | COC1CC(Nc2ncc3c(Br)nn(-c4cc(F)c5ncccc5c4)c3n2)C1 (stereo not shown) [3-bromo-1-(8-fluoro-6-quinolyl)-N-(3-methoxycyclobutyl)pyrazolo[3,4-d]pyrimidin-6-amine] | 25 to 200
29 | C[C@@H]1COCCN1C(=O)[C@@H]1CC[C@@H](Nc2ncc3c(Br)nn(-c4ccc5ncccc5c4)c3n2)C1 [((1R,3R)-3-((3-bromo-1-(quinolin-6-yl)-1H-pyrazolo[3,4-d]pyrimidin-6-yl)amino)cyclo-pentyl)((R)-3-methylmorpholino)methanone] | 25 to 200
30 | CNC(=O)C1(C)CC[C@@H](Nc2ncc3c(Br)nn(-c4ccc5nc(C(C)(C)O)ccc5c4)c3n2)C1 (stereo partly drawn) [(3R)-3-[[3-bromo-1-[2-(1-hydroxy-1-methyl-ethyl)-6-quinolyl]pyrazolo[3,4-d]pyrimidin-6-yl]amino]-N,1-dimethyl-cyclopentane-carboxamide] | 25 to 200
31 | CNC(=O)[C@]1(C)CC[C@@H](Nc2ncc3c(Br)nn(-c4cc(Cl)cc(CCO)c4)c3n2)C1 [(1R,3R)-3-[[3-bromo-1-[3-chloro-5-(2-hydroxyethyl)phenyl]pyrazolo [3,4-d]pyrimidin-6-yl]amino]-N,1-dimethyl-cyclopentanecarboxamide] | < 25
